Where two headings read alike, the source gives them in different places.
How the values were obtained:
αvβ3 integrin [1] = molecular target: T1, αvβ3 integrin (Homo sapiens, UniProt P05106+P06756); experiment: Binding affinity for immobilized αvβ3 integrin, displacement of [125I]c(RGDyV); settings: isolated αvβ3 integrin coated on 96-well plates, radioligand [125I]c(RGDyV), 0.001 to 100 nM peptide, three independent measurements
T1 construct: purchased Millipore-Chemicon, Temecula, CA, USA
Method: In vitro binding affinities of FSC-(RGD)3 and cyclo(-Arg-Gly-Asp-DTyr-Val-) (c(RGDyV)) as control were determined by using isolated αvβ3 integrin (Millipore-Chemicon, Temecula, CA, USA) and ^125I labeled c(RGDyV) as radioligand. The detailed procedure can be found in [16]. Briefly, 96-well plates (Nunc, Thermo Fisher Scientific, Vienna, Austria) were coated for 16 hours at 4 °C with the αvβ3 integrin. Subsequently, the immobilized receptors were incubated with [^125I]c(RGDyV) and increasing concentrations of the corresponding peptide ranging from 0.001 to 100 nM. The unbound fraction of radioligand was washed out, and receptor bound activity was obtained treating the wells with sodium hydroxide (NaOH) solution (2 M). IC50 values were determined by fitting the percent inhibition using OriginPro 8.5 software (Northhampton, MA, USA). Three independent measurements were made.

αvβ3 integrin [2] = molecular target: T1, αvβ3 integrin; settings: comparison value; read-out: IC50, binding affinity for αvβ3 integrin; cited from earlier work
Text: A high binding affinity to the isolated αvβ3 integrin for [^68Ga]FSC-(RGD)3 was found. […] A remarkable enhancement of internalized activity in comparison to [^68Ga]NODAGA-RGD or other monomeric RGD derivatives, [16] was observed. Moreover, ...

T1 sequence (P06756 31-889 limits assumed): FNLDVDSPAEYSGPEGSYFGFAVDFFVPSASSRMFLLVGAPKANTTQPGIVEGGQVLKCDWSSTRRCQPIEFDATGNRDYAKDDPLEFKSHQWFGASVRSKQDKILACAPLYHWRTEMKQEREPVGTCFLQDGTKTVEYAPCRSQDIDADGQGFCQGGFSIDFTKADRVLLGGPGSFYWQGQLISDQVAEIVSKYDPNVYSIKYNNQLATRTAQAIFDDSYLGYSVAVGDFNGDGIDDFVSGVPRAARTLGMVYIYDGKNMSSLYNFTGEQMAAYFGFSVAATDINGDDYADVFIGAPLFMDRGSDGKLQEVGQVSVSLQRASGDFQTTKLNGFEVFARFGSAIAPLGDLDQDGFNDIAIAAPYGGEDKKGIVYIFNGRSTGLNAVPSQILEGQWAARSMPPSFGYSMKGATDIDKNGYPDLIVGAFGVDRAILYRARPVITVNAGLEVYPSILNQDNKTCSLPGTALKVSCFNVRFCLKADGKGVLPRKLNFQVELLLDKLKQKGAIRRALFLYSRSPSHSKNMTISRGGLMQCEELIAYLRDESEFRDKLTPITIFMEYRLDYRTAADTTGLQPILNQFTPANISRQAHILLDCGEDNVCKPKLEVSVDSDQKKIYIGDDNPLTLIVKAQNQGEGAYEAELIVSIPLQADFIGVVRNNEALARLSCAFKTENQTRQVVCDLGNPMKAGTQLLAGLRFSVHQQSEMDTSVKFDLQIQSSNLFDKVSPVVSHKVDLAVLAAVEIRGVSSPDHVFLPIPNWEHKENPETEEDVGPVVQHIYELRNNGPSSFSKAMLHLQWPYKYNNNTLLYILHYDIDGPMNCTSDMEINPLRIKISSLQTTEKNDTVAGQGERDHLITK
T1 sequence (P06756 891-1048 partner limits assumed): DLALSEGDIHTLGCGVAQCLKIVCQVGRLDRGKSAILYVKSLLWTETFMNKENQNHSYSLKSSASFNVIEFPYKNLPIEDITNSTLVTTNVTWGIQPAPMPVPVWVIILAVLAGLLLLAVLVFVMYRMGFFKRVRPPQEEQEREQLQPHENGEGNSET
T1 sequence (P05106 27-788): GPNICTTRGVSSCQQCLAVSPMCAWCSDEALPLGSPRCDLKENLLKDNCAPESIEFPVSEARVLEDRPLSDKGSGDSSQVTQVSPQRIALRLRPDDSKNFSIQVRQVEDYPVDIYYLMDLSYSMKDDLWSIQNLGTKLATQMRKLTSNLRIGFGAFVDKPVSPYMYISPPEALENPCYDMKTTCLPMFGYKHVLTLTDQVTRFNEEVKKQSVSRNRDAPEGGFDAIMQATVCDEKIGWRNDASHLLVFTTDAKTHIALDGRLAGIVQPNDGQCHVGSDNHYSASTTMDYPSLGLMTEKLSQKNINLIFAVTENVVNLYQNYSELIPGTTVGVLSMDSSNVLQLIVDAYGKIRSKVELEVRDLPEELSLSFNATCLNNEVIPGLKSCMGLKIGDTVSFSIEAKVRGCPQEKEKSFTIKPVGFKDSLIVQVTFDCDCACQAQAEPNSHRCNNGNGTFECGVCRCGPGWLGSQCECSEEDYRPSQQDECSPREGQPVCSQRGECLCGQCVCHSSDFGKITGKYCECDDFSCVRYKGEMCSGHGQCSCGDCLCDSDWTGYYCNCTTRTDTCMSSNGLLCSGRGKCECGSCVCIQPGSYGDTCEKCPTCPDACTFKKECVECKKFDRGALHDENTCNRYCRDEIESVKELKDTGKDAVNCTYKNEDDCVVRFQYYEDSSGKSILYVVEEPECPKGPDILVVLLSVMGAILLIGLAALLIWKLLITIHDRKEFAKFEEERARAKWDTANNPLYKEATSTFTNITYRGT

| IC50 (αvβ3 integrin [1]) [nM] | Compound | IC50 (αvβ3 integrin [2]) [nM] |
| --- | --- | --- |
| 1.8 ± 0.6 | C/C1=C/C(=O)N(O)CCC[C@H](NC(=O)CCC(=O)NCCCC[C@@H]2NC(=O)[C@@H](Cc3ccccc3)NC(=O)[C@H](CC(=O)O)NC(=O)CNC(=O)[C@H](CCCNC(=N)N)NC2=O)C(=O)OCC/C(C)=C\C(=O)N(O)CCC[C@H](NC(=O)CCC(=O)NCCCC[C@@H]2NC(=O)[C@@H](Cc3ccccc3)NC(=O)[C@H](CC(=O)O)NC(=O)CNC(=O)[C@H](CCCNC(=N)N)NC2=O)C(=O)OCC/C(C)=C\C(=O)N(O)CCC[C@H](NC(=O)CCC(=O)NCCCC[C@@H]2NC(=O)[C@@H](Cc3ccccc3)NC(=O)[C@H](CC(=O)O)NC(=O)CNC(=O)[C@H](CCCNC(=N)N)NC2=O)C(=O)OCC1 [FSC-(RGD)3] |  |
| 3.2 ± 1.2 | CC(C)[C@@H]1NC(=O)[C@@H](Cc2ccc(O)cc2)NC(=O)[C@H](CC(=O)O)NC(=O)CNC(=O)[C@H](CCCNC(=N)N)NC1=O [c(RGDyV), cyclo(-Arg-Gly-Asp-DTyr-Val-)] |  |
|  | [^68Ga]NODAGA-RGD: established monomeric 68Ga-labeled RGD peptide | 4.7 |
